Test results taken from ChEMBL document CHEMBL1201862, “PubChem BioAssay data set” (2004).
Activity calls are given as the source filed them.

How the values were obtained:
[1] = biological target: T1, RNA-binding protein pos-1 (Caenorhabditis elegans, UniProt G5EF15); assay: disruptors of C. elegans POS-1 RNA interaction – biochemical, fluorescence polarization, dose response (AID 1964);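 note: purified POS-1 fused to maltose binding protein made in E. coli; potency of compounds blocking POS-1 binding to fluorescent RNA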
T1 sequence (G5EF15 whole entry): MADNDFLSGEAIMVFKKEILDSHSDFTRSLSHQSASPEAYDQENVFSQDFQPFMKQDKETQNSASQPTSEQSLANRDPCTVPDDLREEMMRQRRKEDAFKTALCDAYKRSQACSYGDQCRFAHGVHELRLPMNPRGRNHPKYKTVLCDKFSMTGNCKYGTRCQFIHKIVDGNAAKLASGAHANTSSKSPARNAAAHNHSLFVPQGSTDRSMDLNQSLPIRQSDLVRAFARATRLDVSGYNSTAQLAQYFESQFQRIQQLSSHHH

[2] = biological target: T2, Zinc finger protein mex-5 (Caenorhabditis elegans, UniProt Q9XUB2); assay: potency of MEX-5 RNA-binding blockers – biochemical, C. elegans, fluorescence polarization, dose response (AID 1960)
T2 sequence (Q9XUB2 whole entry): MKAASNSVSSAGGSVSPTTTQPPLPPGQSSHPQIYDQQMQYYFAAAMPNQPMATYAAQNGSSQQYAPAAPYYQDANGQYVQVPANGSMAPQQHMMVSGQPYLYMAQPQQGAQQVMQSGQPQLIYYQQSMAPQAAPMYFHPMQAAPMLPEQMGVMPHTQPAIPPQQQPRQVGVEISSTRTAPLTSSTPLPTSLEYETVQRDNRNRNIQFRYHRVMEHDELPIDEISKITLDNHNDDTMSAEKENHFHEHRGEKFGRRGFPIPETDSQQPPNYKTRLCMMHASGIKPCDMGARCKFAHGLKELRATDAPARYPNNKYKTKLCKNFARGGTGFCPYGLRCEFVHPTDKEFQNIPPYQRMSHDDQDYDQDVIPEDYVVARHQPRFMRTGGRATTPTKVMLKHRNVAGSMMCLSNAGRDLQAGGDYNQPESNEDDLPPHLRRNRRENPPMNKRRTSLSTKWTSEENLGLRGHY

[3] = system: Streptococcus sp. 'group A'; assay: Streptococcus pyogenes SK(-)GAS viability under kanamycin – luminescence, BacTiterGlo, confirmation, counter-screen for streptokinase expression inhibitor project, dose response (AID 1900); type: functional, organism-based
Streptokinase A = biological target: T3, Streptokinase A (Streptococcus pyogenes serotype M1, UniProt P10520); assay: viability-normalized secreted streptokinase activity reduction – plasminogen activation absorbance, OD405, dose response (AID 1914); type: functional, Streptococcus pyogenes M1 GAS;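 note: secreted streptokinase activity via plasminogen activation per viability signal from cell pellet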
T3 sequence (P10520 whole entry): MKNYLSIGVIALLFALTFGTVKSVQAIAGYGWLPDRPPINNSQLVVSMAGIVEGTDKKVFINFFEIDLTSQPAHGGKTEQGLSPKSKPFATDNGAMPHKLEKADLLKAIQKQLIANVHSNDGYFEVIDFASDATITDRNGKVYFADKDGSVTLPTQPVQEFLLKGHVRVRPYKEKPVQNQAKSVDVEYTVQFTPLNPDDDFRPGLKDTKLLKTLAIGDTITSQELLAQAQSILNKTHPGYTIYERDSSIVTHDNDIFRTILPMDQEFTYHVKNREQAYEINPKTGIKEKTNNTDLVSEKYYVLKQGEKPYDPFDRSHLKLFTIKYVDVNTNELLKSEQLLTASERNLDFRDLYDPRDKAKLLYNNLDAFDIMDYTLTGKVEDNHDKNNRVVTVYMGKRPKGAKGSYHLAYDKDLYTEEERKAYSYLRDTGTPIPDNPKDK

Streptococcus = assay: GAS UMAA2166 growth inhibition – luminescence, BacTiterGlo, counter-screen for streptokinase expression inhibitor project, dose response (AID 1915); type: functional, organism-based;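 note: potency for reduction of bacterial viability or growth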
Cytochrome P450 2C19 = Cytochrome P450 2C19 (Homo sapiens, UniProt P33261); assay: Cytochrome panel assay with activity outcomes. Panel member name: p450-cyp2c19 Compounds with AC50 equal or less than 10 uM are considered active; type: functional; conditions: read-out: AC50
Cytochrome P450 2D6 = Cytochrome P450 2D6 (Homo sapiens, UniProt P10635);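 note: CYP2D6 member of a cytochrome P450 panel assay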
Cytochrome P450 1A2 = biological target: T4, Cytochrome P450 1A2 (Homo sapiens, UniProt P05177);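 note: PubChem cytochrome P450 panel assay, CYP1A2 panel member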
T4 sequence (P05177 whole entry): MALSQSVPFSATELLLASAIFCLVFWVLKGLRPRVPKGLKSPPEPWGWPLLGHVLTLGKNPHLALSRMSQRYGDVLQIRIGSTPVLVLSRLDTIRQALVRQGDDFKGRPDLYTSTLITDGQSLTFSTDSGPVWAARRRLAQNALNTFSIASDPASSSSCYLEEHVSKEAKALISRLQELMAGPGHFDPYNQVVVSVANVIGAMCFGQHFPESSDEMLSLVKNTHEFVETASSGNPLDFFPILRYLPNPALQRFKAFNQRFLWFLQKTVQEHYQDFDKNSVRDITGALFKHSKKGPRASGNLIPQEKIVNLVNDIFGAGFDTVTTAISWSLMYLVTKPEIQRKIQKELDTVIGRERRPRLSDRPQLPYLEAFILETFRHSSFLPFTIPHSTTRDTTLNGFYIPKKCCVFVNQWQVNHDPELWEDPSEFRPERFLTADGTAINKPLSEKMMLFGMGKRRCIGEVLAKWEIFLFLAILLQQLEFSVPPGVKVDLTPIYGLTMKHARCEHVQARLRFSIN

[4] = biological target: T5, Heat shock factor protein 1 (Mus musculus, UniProt P38532); assay: enhancement of HSF1-driven luciferase signal – cell-based, NIH3T3, luminescence, dose retest, confirmation (AID 435004); type: functional;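 note: stress induced by proteasome inhibitor MG132 added 30 min after compound; luciferase reporter driven by HSF1 response element in NIH3T3 cells; actives raise luminescence as potentiators of the MG132 stress response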
T5 sequence (P38532 whole entry): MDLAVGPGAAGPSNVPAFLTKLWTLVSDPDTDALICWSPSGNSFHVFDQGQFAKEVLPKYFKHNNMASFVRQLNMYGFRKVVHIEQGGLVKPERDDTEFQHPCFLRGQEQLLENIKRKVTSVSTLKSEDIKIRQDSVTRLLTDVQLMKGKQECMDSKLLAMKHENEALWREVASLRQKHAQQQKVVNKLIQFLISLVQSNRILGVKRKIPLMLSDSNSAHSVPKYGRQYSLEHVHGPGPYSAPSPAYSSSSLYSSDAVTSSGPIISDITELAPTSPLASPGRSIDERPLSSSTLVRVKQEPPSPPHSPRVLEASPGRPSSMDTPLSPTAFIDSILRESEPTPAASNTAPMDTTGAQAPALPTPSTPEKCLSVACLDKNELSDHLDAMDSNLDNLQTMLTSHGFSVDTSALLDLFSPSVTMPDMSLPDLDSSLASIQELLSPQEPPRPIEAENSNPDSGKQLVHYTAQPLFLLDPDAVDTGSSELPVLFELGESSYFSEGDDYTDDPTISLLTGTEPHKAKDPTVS

[5] = Trypanosoma cruzi growth suppression in host cells – NIH3T3 host cells, beta-gal luminescence, confirmation (AID 2044); type: functional, cell-based;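 note: intracellular parasites grown in NIH/3T3 mouse fibroblasts as host cells; luminescent beta-galactosidase reporter signal from transgenic T. cruzi replicating inside host cells; inhibitors lower the luminescence signal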
[6] = NIH3T3 cell viability loss – ATP luminescence, mouse fibroblasts, counter-screen, dose response (AID 2010); type: functional, cell-based;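 note: cells exposed to compound for about 90 hours before reading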

Chain of Cytochrome P450 2D6 (P10635 whole entry): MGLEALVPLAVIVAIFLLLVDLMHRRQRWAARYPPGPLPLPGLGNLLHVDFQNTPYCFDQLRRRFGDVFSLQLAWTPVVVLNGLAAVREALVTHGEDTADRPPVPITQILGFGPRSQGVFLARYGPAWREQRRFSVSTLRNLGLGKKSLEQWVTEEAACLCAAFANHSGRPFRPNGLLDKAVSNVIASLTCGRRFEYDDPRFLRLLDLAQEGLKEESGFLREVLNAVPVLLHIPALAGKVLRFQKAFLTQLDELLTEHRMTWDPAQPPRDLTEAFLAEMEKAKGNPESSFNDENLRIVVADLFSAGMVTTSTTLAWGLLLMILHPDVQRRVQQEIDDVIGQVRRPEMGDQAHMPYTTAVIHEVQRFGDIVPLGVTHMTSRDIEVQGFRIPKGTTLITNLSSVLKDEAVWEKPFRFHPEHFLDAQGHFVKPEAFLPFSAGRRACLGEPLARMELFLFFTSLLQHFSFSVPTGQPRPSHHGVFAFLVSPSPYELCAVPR
Chain of Cytochrome P450 2C19 (P33261 whole entry): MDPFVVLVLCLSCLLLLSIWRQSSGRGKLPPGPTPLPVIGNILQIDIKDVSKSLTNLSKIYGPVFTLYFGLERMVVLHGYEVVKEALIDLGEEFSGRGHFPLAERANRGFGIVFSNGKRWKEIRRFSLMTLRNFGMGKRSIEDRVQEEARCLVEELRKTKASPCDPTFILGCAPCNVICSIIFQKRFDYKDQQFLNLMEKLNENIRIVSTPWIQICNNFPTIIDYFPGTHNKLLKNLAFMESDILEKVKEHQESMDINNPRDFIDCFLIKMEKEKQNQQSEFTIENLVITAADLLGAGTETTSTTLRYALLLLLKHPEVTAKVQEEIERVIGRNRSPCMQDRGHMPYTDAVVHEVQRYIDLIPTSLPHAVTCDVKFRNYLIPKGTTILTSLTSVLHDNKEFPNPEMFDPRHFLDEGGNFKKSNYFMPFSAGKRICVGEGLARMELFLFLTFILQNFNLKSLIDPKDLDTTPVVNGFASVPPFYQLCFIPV

## O=C1C(Cl)=C(Nc2ccccc2O)C(=O)N1c1ccccc1
[1]
  EC50: > 300 µM (not active)
[2]
  EC50: 73 µM (inconclusive)

## O=C1NC(=O)N(c2ccc(Br)cc2)C(=O)/C1=C/NCCN1CCCCC1
[1]
  EC50: > 300 µM (not active)
[2]
  EC50: 106 µM (active)

## O=C(CSc1nnc(NC(=O)C2CC(=O)N(c3ccc(F)cc3)C2)s1)NCc1ccco1 (configuration not stated)
[3]
  EC50: > 150 µM (not active)
Streptokinase A
  EC50: > 150 µM (not active)
Streptococcus
  EC50: > 150 µM (not active)

## CC(=O)c1cccc(NC(=O)/C(=C\c2ccco2)NC(=O)c2cccs2)c1
Cytochrome P450 2C19
  AC50: 11.2 µM (inconclusive)
Cytochrome P450 2D6
  AC50: 14.1 µM (inconclusive)
Cytochrome P450 1A2
  AC50: 14.1 µM (inconclusive)

## Cc1noc(C)c1-c1nccc(NCc2cccnc2)n1
Cytochrome P450 2D6
  AC50: 20 µM (inconclusive)

## COc1cc(C2CC(c3cccnc3)=NN2c2ccc(F)cc2)cc(OC)c1OC (configuration not stated)
[4]
  EC50: 48.5 µM (active)

## Cn1c(C[C@@H](O)c2nc3ccccc3n2C)nc2ccccc21
Cytochrome P450 2D6
  AC50: 2.51 µM (inconclusive)

## COC(=O)CCC(=O)OC1(C)C(=O)C=C2C=C(c3ccsc3)OC=C2C1=O (configuration not stated)
[1]
  EC50: 36.8 µM (active)
[2]
  EC50: 26.7 µM (inconclusive)

## COC(=O)CCCC1=CC2=CC(=O)C(C)(OC(=O)c3cccs3)C(=O)C2=CO1 (configuration not stated)
[1]
  EC50: 14 µM (active)
[2]
  EC50: 16.5 µM (active)

## CCOC(=O)c1cc(C#N)c(SCc2ccc(C#N)cc2)nc1C
[4]
  EC50: 41.9 µM (active)

## CCCCC#Cc1ccccc1CC(=O)Nc1ccccc1
Cytochrome P450 2D6
  AC50: 12.6 µM (inconclusive)

## CC(=O)N1CCC2(CCN(Cc3ccccc3)CC2)CC1
Cytochrome P450 2D6
  AC50: 15.8 µM (inconclusive)

## CCCn1c(=N)c(C(=O)NCC2CCCO2)cc2c(=O)n3cccc(C)c3nc21 (configuration not stated)
[1]
  EC50: > 300 µM (not active)
[2]
  EC50: > 300 µM (not active)

## Cc1cc(=O)nc2c3ccccc3n(CC(=O)Nc3ccccc3Br)n12
[1]
  EC50: > 300 µM (not active)
[2]
  EC50: 103 µM (active)

## Nc1ccccc1Nc1ccc([N+](=O)[O-])cc1[N+](=O)[O-]
[4]
  EC50: > 260 µM (inactive)

## CC1CCN(c2nc(-c3ccccc3)cc(C(F)(F)F)n2)CC1
[3]
  EC50: 3.73 µM (active)
Streptokinase A
  EC50: 9.36 µM (inconclusive)
Streptococcus
  EC50: 9.37 µM (active)

## Cc1ccc(NC(S)=Nc2nc(CC(=O)Nc3ccccc3)cs2)cc1
Cytochrome P450 2D6
  AC50: 1.78 µM (inconclusive)

## CN(CC1CCCO1)S(=O)(=O)c1ccc(C(=O)Nc2ccc(F)cc2)cc1 (configuration not stated)
[3]
  EC50: > 150 µM (not active)
Streptokinase A
  EC50: > 150 µM (not active)
Streptococcus
  EC50: > 150 µM (not active)

## COc1cccc(-c2ccc3ncnc(NC4CC4)c3c2)c1
Cytochrome P450 2D6
  AC50: 25.1 µM (inconclusive)

## COC(=O)c1ccc(C23CC2(C(NP(=O)(c2ccccc2)c2ccccc2)c2ccccc2)C3)cc1 (configuration not stated)
Cytochrome P450 2D6
  AC50: 31.6 µM (inconclusive)

## OCCOc1ccc(C2=NCCO2)cc1
[1]
  EC50: > 300 µM (not active)
[2]
  EC50: > 300 µM (not active)

## Cc1cnc(CNc2ncnc3ccc(-c4ccccc4C)cc23)cn1
Cytochrome P450 2D6
  AC50: 20 µM (inconclusive)

## CC(C)(C)NC(=O)c1ccc2c3c(cccc13)CC2
[4]
  EC50: > 260 µM (inactive)

## CCOc1ccc(N2CC(=O)C(c3nc(O)c4ccccc4n3)=C2N)cc1
[4]
  EC50: > 260 µM (inactive)

## CCN1/C(=C2/SC(=S)N(NC(C)=O)C2=O)Sc2ccccc21
[1]
  EC50: 60.7 µM (active)
[2]
  EC50: > 300 µM (not active)

## COC(=O)c1c(C)[nH]c(C(=O)OCC(=O)N(CC(C)C)c2c(N)n(Cc3ccccc3)c(=O)[nH]c2=O)c1C
[3]
  EC50: 5.83 µM (active)
Streptokinase A
  EC50: > 150 µM (not active)
Streptococcus
  EC50: > 150 µM (not active)

## Cc1nc2ccccc2c2oc(C(=O)Nc3ccc4c(c3)OCCO4)cc12
[1]
  EC50: 16.6 µM (active)
[2]
  EC50: 25.9 µM (inconclusive)

## COc1ccc(CN(CC2CCC(C(=O)O)CC2)C(S)=Nc2cc(Cl)ccc2OC)cc1 (configuration not stated)
[4]
  EC50: > 260 µM (inactive)

## COc1ccc(S(=O)(=O)n2nc(OC(=O)c3ccccc3Br)cc2N)cc1
[4]
  EC50: 18.2 µM (active)

## CC(C)(C)c1nc(NC(=O)Nc2ccccc2)sc1Br
[3]
  EC50: 4.45 µM (active)
Streptokinase A
  EC50: > 50 µM (not active)
[5]
  EC50: 4.22 µM (active)
[6]
  EC50: > 60 µM (not active)
Streptococcus
  EC50: 6.77 µM (active)

## O=C(O)CSc1c(-c2ccccc2)[nH]c2ccccc12
[4]
  EC50: > 260 µM (inactive)

## COc1cc(C2NC(S)=NC(C)=C2C(=O)OC(C)C)ccc1OC(C)C (configuration not stated)
[1]
  EC50: > 300 µM (not active)
[2]
  EC50: > 300 µM (not active)

## NC(=O)[C@@H]1CCCN1Cc1c(C(=O)N2CCc3ccccc3C2)nc2ccc(Cl)cn12
[1]
  EC50: 61.7 µM (active)
[2]
  EC50: 47 µM (active)

## CN(C)c1ncc2nc(CCc3ccccc3)c(=O)n(-c3ccccc3)c2n1
Cytochrome P450 2C19
  AC50: 39.8 µM (inconclusive)
Cytochrome P450 2D6
  AC50: 2.51 µM (inconclusive)

## COc1cc2[nH]c(=S)n(Cc3ccco3)c(=O)c2cc1OC
[4]
  EC50: > 260 µM (inactive)

## Cc1ccccc1CC(=O)NC1CCCc2ccccc21 (configuration not stated)
[4]
  EC50: > 260 µM (inactive)

## O=C(NC1CCCN(Cc2ccccc2F)C1)c1cccs1 (configuration not stated)
[4]
  EC50: > 260 µM (inactive)

## COC(=O)/C(=C\C(=O)c1ccccc1)Nc1cccc(C(F)(F)F)c1
Cytochrome P450 2D6
  AC50: 25.1 µM (inconclusive)

## Cc1ccc(CC2S/C(=N\c3ccccc3)N(c3ccccc3)C2=O)cc1 (configuration not stated)
[4]
  EC50: > 260 µM (inactive)

## Cc1ccn2c(C(=O)N/N=C\c3ccccc3[N+](=O)[O-])c(C)nc2c1
[4]
  EC50: > 260 µM (inactive)

## Cc1ccc(/N=C2\SC(C(=O)NCCc3ccccc3)CC(=O)N2C)cc1C (configuration not stated)
[4]
  EC50: > 260 µM (inactive)

## O=[N+]([O-])c1cccc(/C=N/Nc2nc(N3CCCCC3)nc(N3CCCCC3)n2)c1
[3]
  EC50: 33.5 µM (active)
Streptokinase A
  EC50: 39.4 µM (active)
Streptococcus
  EC50: > 150 µM (not active)

## CCCCCCCCCCCCCC(=O)O[C@H](CC(=O)[O-])C[N+](C)(C)C
Cytochrome P450 2D6
  AC50: 31.6 µM (inconclusive)

## CC[N+](CC)(CCNC(=O)C(=O)NCC[N+](CC)(CC)Cc1ccccc1Cl)Cc1ccccc1Cl [AMBENONIUM]
Cytochrome P450 2D6
  AC50: 39.8 µM (inconclusive)
